From patent EP1397353B1, “2-(2,6-DISUBSTITUTED PHENYL)-4-ARYL-5-ALKYL-1,3-OXAZOLINE COMPOUNDS USEFUL AS INSECTICIDES AND ACARICIDES” (Dow AgroSciences LLC, priority 2001, dated 2003)

Key:
Format in all cases: in vivo
[1] = test system: tobacco budworm (Heliothis virescens); assay: Insecticidal test for tobacco budworm (leaf-dip, cotton cotyledon discs); settings: dipped cotton cotyledon discs, 2nd instar larvae, 5 days, rating of % Control; for pest or weed control at 400 ppm: Heliothis virescens, 120 h, read-out: TBW, activity at 400 ppm against tobacco budworm
Protocol: (§1) Insecticidal test for tobacco budworm (Heliothis virescens), beet armyworm (Spodoptera exigua), and cabbage looper (Trichoplusia ni).
(§2) To prepare test solution, the test compound was formulated at 400 ppm in 7.5 mL of 2 acetone: 1 tap water. 250 µL of the test solution was pipetted upon the surface of 8 mL of lepidopteran diet (modified Shorey) contained in each of five one-ounce plastic cups (one cup = 1 replication). […] After airdrying, the treated leaf discs were placed individually into one-ounce plastic cups. Each dried, treated cotton cotyledon disc was infested with a 2nd instar tobacco budworm larva, and each cabbage leaf disc was infested with a 2nd instar cabbage looper larva. Cups containing the treated substrates and larvae were capped and then held in a growth chamber at 25 °C, 50-55% RH, and 14 hr light: 10 hr dark for 5 days.

[2] = test system: beet armyworm (Spodoptera exigua); assay: Insecticidal test for beet armyworm (treated lepidopteran diet); settings: 2nd instar larvae, 5 days, rating of % Control; for pest or weed control at 400 ppm: Spodoptera exigua, 120 h, read-out: BAW, activity at 400 ppm against beet armyworm
Protocol: as §1, §2

[3] = test system: cabbage looper (Trichoplusia ni); assay: Insecticidal test for cabbage looper (leaf-dip, cabbage leaf discs); settings: dipped cabbage leaf discs, 2nd instar larvae, 5 days, rating of % Control; for pest or weed control at 400 ppm: Trichoplusia ni, foliar, 120 h, read-out: CL, activity at 400 ppm against cabbage looper
Protocol: as §1, §2

[4] = test system: two-spotted spider mite (Tetranychus urticae); assay: Insecticidal test for two-spotted spider mite, ovicide method; settings: for pest or weed control: Tetranychus urticae, read-out: SM, activity against two-spotted spider mite
Protocol: Insecticidal test for two-spotted spider mite (Tetranychus urticae)
Ten adult female two-spotted spider mites were placed on eight 2.2 cm leaf discs of cotton leaf, allowed to oviposit over 24 hours, and thereafter removed. […] Discs were placed on an agar substrate and held at 24 °C and 90% RH for 6 days.

[5] = foliar, 144 h, ovicide method, cotton leaf discs, 6 days, rating of % Control

Row | Molecule | pest or weed control at 400 ppm [1] [%] | pest or weed control at 400 ppm [2] [%] | pest or weed control at 400 ppm [3] [%] | also measured
1 | Cc1ccc(-c2ccc([C@@H]3N=C(c4c(F)cccc4F)O[C@H]3C)cc2)cc1 (mixture of isomers) [Compound 36, (4S,5S)- and (4R,5R)-2-(2,6-difluorophenyl)-5-methyl-4-(4'-methyl-1,1'-biphenyl-4-yl)-4,5-dihydro-1,3-oxazole] | < 50 | < 50 | 90 to 100 | 
2 | C[C@@H]1OC(c2c(F)cccc2F)=N[C@@H]1c1ccc(-c2ccc(C(F)(F)F)cc2)cc1 (racemic) [Compound 5, (4R,5S)- and 4S,5R)-2-(2,6-difluorophenyl)-5-methyl-4-(4'-(trifluoromethyl)-1,1'-biphenyl-4-yl]-4,5-dihvdro-1,3-oxazole] |  |  |  | BAW, activity at 400 ppm against beet armyworm [2]: A (90-100); CL, activity at 400 ppm against cabbage looper [3]: A (90-100); SM, activity at 2.5 ppm against two-spotted spider mite ([4]; foliar, 144 h): A (90-100)
3 | (4R,5R)- and (4S,5S)-4-(4-bromophenyl)-2-(2-chloro-6-fluorophenyl)-5-methyl-4,5-dihydro-1,3-oxazole [Compound 23] |  |  |  | TBW, activity at 400 ppm against tobacco budworm [1]: B (80-89); CL, activity at 400 ppm against cabbage looper [3]: F (less than 50); SM, activity at 2.5 ppm against two-spotted spider mite ([4]; ovicide method, cotton leaf discs, 6 days, rating of % Control): A (90-100)
4 | C[C@@H]1OC(c2c(F)cccc2F)=N[C@H]1c1ccc(-c2ccc(Cl)cc2)cc1 (mixture of isomers) [Compound 37, (4S,5S)- and (4R,5R)-4-(4'-chloro-1,1'-biphenyl-4-yl)-2-(2,6-difluorophenyl)-5-methyl-4,5-dihydro-1,3-oxazole] | 90 to 100 | 90 to 100 | 90 to 100 | 
5 | C[C@@H]1OC(c2c(F)cccc2F)=N[C@H]1c1ccc(-c2ccccc2F)cc1 (mixture of isomers) [Compound 31, (4S,5S)- and (4R,5R)-2-(2,6-difluorophenyl)-4-(2'-fluoro-1,1'-biphenyl-4-yl)-5-methyl-4,5-dihydro-1,3-oxazole] | < 50 | < 50 | 90 to 100 | pest or weed control [4, 5]: 90 to 100%
6 | CCOc1ccc(-c2ccc([C@@H]3N=C(c4c(F)cccc4F)O[C@H]3C)c(C)c2)cc1 (mixture of isomers) [Compound 45, (4S,5S)- and (4R,5R)-2-(2,6-difluorophenyl)-4-(4'-ethoxy-3-methyl-1,1'-biphenyl-4-yl)-5-methyl-4,5-dihydro-1,3-oxazole] | 90 to 100 | 90 to 100 | 90 to 100 | pest or weed control [4, 5]: < 50%
7 | CCOc1ccc(-c2ccc([C@@H]3N=C(c4c(F)cccc4F)O[C@H]3C)cc2)cc1 (mixture of isomers) [Compound 33, (4S,5S)- and (4R,5R)-2-(2,6-difluorophenyl)-4-(4'-ethoxy-1,1'-biphenyl-4-yl)-5-methyl-4,5-dihydro-1,3-oxazole] | 80 to 89 | 90 to 100 | 90 to 100 | pest or weed control [4, 5]: 80 to 89%
8 | Cc1ccc(-c2ccc([C@@H]3N=C(c4c(F)cccc4F)O[C@H]3C)cc2)cc1C (mixture of isomers) [Compound 29, (4S,5S)- and (4R,5R)-2-(2,6-difluorophenyl)-4-(3',4'-dimethyl-1,1'-biphenyl-4-yl)-5-methyl-4,5-dihydro-1,3-oxazole] | < 50 | 60 to 69 | 90 to 100 | 
9 | C[C@@H]1OC(c2c(F)cccc2F)=N[C@@H]1c1ccc(-c2ccc(C(F)(F)F)cc2F)cc1 (mixture of isomers) [Compound 16, (4R,5S)- and (4S,5R)-2-(2,6-difluorophenyl)-4-[2'-fluoro-4'-(trifluoromethyl)-1,1'-biphenyl-4-yl]-5-methyl-4,5-dihydro-1,3-oxazole] | 90 to 100 | 90 to 100 | 90 to 100 | 
10 | Cc1ccc(-c2ccc([C@@H]3N=C(c4c(F)cccc4F)O[C@@H]3C)cc2)cc1 (mixture of isomers) [Compound 9, (4S,5R)- and (4R,5S)-2-(2,6-difluorophenyl)-5-methyl-4-(4'-methyl-1,1'-biphenyl-4-yl)-4,5-dihydro-1,3-oxazole] | < 50 | 90 to 100 | 90 to 100 | 
11 | C[C@@H]1OC(c2c(F)cccc2F)=N[C@H]1c1ccc(-c2ccc(OC(F)(F)F)cc2)cc1 [Compound 47] |  |  |  | BAW, activity at 400 ppm against beet armyworm [2]: A (90-100); CL, activity at 400 ppm against cabbage looper [3]: A (90-100); SM, activity at 2.5 ppm against two-spotted spider mite ([4]; foliar, 144 h): A (90-100)
12 | C[C@@H]1OC(c2c(F)cccc2F)=N[C@@H]1c1ccc(-c2ccc3c(c2)OC(F)(F)O3)cc1 (mixture of isomers) [Compound 13, (4R,5S)- and (4S,5R)-4-[4-(2,2-difluoro-1,3-benzodioxol-5-yl)phenyl]-2-(2,6-difluorophenyl)-5-methyl-4,5-dihydro-1,3-oxazole] | < 50 |  | 90 to 100 | 
13 | C[C@H]1OC(c2c(F)cccc2F)=N[C@H]1c1ccc(-c2ccc(Cl)cc2)cc1 (mixture of isomers) [Compound 10, (4S,5R)- and (4R,5S)-4-(4'-chloro-1,1'-biphenyl-4-yl)-2-(2,6-difluorophenyl)-5-methyl-4,5-dihydro-1,3-oxazole] | 90 to 100 | 90 to 100 | 90 to 100 | 
14 | C[C@H]1OC(c2c(F)cccc2F)=N[C@H]1c1ccc(-c2cccc(C(F)(F)F)c2)cc1 (mixture of isomers) [Compound 11, (4S,5R)- and (4R,5S)-2-(2,6-difluorophenyl)-5-methyl-4-[3'-(trifluoromethyl)-1,1'-biphenyl-4-yl]-4,5-dihydro-1,3-oxazole] | 80 to 89 | 90 to 100 | 90 to 100 | 
15 | C[C@@H]1OC(c2c(F)cccc2F)=N[C@H]1c1ccc(-c2ccc(F)cc2)cc1 (mixture of isomers) [Compound 25, (4S,5S)- and (4R,5R)-2-(2,6-difluorophenyl)-4-(4'-fluoro-1,1'-biphenyl-4-yl)-5-methyl-4,5-dihydro-1,3-oxazole] | 90 to 100 | 90 to 100 | 90 to 100 | pest or weed control [4, 5]: 90 to 100%
16 | C[C@@H]1OC(c2c(F)cccc2F)=N[C@@H]1c1ccc(-c2ccccc2F)cc1 (racemic) [Compound 15, (4R,5S)- and (4S,5R)-2-(2,6-difluorophenyl)-4-2'-fluoro-1,1'-biphenyl-4-yl)-5-methyl-4,5-dihydro-1,3-oxazole] |  |  |  | CL, activity at 400 ppm against cabbage looper [3]: A (90-100)
17 | C[C@@H]1OC(c2c(F)cccc2F)=N[C@H]1c1ccc(-c2cccc(C(F)(F)F)c2)cc1 (mixture of isomers) [Compound 28, (4S,5S)- and (4R,5R)-2-(2,6-difluorophenyl)-5-methyl-4-[3'-(trifluoromethyl)-1,1'-biphenyl-4-yl]-4,5-dihydro-1,3-oxazole] | 90 to 100 | 90 to 100 | 90 to 100 | pest or weed control [4, 5]: 90 to 100%
18 | C[C@@H]1OC(c2c(F)cccc2F)=N[C@H]1c1ccc(-c2ccc3c(c2)OC(F)(F)O3)cc1 (mixture of isomers) [Compound 34, (4S,5S)- and (4R,5R)-4-[4-(2,2-difluoro-1,3-benzodioxol-5-yl)phenyl]-2-(2,6-difluorophenyl)-5-methyl-4,5-dihydro-1,3-oxazole] | < 50 |  | 90 to 100 | 
19 | CCOc1ccc(-c2ccc([C@H]3N=C(c4c(F)cccc4F)O[C@H]3C)cc2)cc1 (racemic) [Compound 12, (4R,5S)- and (4S,5R)-2-(2,6-difluorophenyl)-4-(4'-ethoxy-1,1'-bphenyl-4-yl)-5-methyl-4,5-dihydro-1,3-oxazole] |  |  |  | TBW, activity at 400 ppm against tobacco budworm [1]: B (80-89); BAW, activity at 400 ppm against beet armyworm [2]: A (90-100); CL, activity at 400 ppm against cabbage looper [3]: A (90-100)
20 | Cc1cc(Br)ccc1[C@@H]1N=C(c2c(F)cccc2F)O[C@H]1C (mixture of isomers) [Compound 42, (4S,5S)- and (4R,5R)-4-(4-bromo-2-methylphenyl)-2-(2,6-difluorophenyl)-5-methyl-4,5dihydro-1,3-oxazole] | < 50 |  |  | 
21 | (4R,5R)- and (4S,5S)-4-phenyl-2-(2,6-difluorophenyl)-5-methyl-4,5-dihydro-1,3-oxazole [Compound 35] |  |  |  | TBW, activity at 400 ppm against tobacco budworm [1]: F (less than 50); CL, activity at 400 ppm against cabbage looper [3]: F (less than 50)
